Columns and labels:
[1] = Drug uptake in Sprague-Dawley rat brain at 10 mg/kg, po measured at 2 hrs by LC-MS/MS analysis; type: ADME, organism-based; design: dose 10 mg/kg, route oral; conditions: read-out: Drug uptake
[2] = target: C-X-C chemokine receptor type 5 (Homo sapiens) (UniProt P32302); experiment: Antagonist activity at CXCR5 (unknown origin) at 10 uM relative to control
CYP2D6 = CYP2D6 (Homo sapiens, UniProt P10635); experiment: Inhibition of recombinant human CYP2D6 assessed as remaining activity at 10 uM preincubated for 5 mins followed by substrate and NADP addition measured after 20 mins by fluorescence assay relative to control; type: ADME; conditions: read-out: Activity
CYP2D6, sequence (P10635 whole entry): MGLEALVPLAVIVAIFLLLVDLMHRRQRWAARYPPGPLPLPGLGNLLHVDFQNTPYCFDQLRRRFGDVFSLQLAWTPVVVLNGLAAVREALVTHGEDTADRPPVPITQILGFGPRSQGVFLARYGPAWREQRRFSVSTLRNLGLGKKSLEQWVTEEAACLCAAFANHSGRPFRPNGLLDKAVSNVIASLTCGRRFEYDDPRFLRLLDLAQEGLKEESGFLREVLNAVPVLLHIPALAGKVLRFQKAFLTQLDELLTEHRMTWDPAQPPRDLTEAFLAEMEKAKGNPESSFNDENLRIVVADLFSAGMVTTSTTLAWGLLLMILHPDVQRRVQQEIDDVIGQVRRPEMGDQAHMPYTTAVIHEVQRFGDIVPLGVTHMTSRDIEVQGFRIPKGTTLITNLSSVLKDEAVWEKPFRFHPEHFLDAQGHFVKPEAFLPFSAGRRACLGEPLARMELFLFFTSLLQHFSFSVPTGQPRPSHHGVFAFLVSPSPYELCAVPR

[3] = target: T1, Metabotropic glutamate receptor 1 (Homo sapiens, UniProt Q13255); experiment: Antagonist activity at mGlu1 receptor (unknown origin) at 10 uM relative to control
Target sequence in this assay (Q13255 19-1194 limits assumed): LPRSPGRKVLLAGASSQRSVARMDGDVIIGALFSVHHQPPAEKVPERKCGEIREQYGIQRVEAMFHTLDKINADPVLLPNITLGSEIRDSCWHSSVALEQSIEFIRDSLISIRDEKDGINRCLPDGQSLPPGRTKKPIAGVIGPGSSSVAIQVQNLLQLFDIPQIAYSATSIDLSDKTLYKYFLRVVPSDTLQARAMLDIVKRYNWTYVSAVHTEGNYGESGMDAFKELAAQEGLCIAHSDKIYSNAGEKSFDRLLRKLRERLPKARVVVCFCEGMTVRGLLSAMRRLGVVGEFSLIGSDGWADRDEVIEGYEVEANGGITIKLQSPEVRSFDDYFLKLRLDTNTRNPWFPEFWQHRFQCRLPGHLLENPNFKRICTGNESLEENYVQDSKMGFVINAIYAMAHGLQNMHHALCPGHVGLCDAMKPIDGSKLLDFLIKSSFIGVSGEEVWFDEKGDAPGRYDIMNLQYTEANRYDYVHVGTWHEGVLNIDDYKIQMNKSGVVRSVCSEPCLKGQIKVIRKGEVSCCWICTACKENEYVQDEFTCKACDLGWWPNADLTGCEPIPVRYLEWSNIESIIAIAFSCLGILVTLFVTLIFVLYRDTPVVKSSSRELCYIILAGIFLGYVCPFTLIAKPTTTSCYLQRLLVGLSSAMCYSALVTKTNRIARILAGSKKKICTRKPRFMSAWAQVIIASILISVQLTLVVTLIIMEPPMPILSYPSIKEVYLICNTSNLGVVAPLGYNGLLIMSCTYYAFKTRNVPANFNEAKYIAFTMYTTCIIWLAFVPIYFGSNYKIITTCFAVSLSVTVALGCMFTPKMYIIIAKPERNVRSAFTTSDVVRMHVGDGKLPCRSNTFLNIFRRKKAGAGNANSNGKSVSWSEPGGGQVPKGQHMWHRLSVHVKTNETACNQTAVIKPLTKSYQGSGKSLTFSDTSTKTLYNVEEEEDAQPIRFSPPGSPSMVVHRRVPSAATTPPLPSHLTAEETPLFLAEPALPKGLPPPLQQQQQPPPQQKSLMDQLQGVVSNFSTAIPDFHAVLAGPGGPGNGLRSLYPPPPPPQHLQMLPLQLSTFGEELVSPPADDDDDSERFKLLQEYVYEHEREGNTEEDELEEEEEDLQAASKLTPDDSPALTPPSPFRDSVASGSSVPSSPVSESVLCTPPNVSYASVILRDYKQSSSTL

[4] = target: B2 bradykinin receptor (Homo sapiens) (UniProt P30411); experiment: Agonist activity at BDKR2 (unknown origin) at 12.5 uM relative to control
B2 bradykinin receptor (Homo sapiens), sequence (P30411 whole entry): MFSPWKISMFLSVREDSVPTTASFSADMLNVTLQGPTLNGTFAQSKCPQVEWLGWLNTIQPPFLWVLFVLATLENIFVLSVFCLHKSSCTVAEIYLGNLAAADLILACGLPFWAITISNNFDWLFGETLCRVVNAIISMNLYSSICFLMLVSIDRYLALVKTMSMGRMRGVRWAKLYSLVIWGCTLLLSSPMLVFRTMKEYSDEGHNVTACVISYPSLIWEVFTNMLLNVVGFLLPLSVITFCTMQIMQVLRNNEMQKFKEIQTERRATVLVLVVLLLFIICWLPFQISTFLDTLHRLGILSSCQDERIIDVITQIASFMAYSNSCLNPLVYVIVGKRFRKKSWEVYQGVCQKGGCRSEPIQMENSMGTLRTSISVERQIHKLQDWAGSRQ

[5] = target: Delta-type opioid receptor (Homo sapiens) (UniProt P41143); experiment: Agonist activity at OPRD1 receptor (unknown origin) at 12.5 uM relative to control
Delta-type opioid receptor (Homo sapiens), sequence (P41143 whole entry): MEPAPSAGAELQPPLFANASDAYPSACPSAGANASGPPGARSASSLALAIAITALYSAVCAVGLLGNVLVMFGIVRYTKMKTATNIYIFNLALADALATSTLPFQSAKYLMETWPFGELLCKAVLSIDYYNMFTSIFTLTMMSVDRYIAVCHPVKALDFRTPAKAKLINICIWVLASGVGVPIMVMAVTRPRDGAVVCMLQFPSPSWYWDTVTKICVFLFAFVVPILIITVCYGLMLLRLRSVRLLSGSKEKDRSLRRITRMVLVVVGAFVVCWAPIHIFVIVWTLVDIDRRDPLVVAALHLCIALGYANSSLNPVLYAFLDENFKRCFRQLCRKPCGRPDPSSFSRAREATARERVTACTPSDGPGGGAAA

[6] = target: Muscarinic acetylcholine receptor M5 (Homo sapiens) (UniProt P08912); experiment: Antagonist activity at M5 receptor (unknown origin) at 10 uM relative to control
Muscarinic acetylcholine receptor M5 (Homo sapiens), sequence (P08912 whole entry): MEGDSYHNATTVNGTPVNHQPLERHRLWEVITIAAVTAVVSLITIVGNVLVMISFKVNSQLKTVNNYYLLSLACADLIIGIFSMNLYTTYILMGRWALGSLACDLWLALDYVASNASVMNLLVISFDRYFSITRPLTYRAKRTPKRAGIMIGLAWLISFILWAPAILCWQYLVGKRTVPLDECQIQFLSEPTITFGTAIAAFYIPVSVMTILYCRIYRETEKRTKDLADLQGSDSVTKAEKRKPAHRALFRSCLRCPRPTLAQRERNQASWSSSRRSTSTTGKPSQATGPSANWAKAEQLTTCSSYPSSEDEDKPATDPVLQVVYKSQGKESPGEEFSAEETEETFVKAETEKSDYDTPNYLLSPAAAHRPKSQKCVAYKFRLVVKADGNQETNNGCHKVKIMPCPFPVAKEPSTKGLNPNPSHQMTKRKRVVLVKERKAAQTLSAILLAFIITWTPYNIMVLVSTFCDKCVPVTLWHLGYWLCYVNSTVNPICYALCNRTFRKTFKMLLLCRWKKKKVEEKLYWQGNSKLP

[7] = target: Delta-type opioid receptor (Homo sapiens) (UniProt P41143); experiment: Antagonist activity at OPRD1 receptor (unknown origin) at 10 uM relative to control
[8] = Metabolic stability in human liver microsomes assessed as compound remaining at 1 uM after 30 mins by LC-MS/MS analysis in presence of NADPH; type: ADME; conditions: read-out: Stability
[9] = target: C-C chemokine receptor type 5 (Homo sapiens) (UniProt P51681); experiment: Agonist activity at CCR5 (unknown origin) at 12.5 uM relative to control
C-C chemokine receptor type 5 (Homo sapiens), sequence (P51681 whole entry, looked up): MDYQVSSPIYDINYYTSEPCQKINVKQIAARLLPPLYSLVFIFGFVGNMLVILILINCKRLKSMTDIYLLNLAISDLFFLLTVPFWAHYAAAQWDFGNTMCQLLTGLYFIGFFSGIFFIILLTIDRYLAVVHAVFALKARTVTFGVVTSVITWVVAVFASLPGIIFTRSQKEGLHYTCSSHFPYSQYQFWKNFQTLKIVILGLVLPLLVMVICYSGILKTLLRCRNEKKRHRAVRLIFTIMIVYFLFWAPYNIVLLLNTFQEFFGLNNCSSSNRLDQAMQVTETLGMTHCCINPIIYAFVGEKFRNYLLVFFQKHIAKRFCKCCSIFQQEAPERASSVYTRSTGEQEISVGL

[10] = Bioavailability in Sprague-Dawley rat at 10 mg/kg, iv by LC-MS/MS analysis; type: ADME, organism-based; conditions: in vivo
[11] = target: Muscarinic acetylcholine receptor M1 (Homo sapiens) (UniProt P11229); experiment: Agonist activity at M1 receptor (unknown origin) at 12.5 uM relative to control
Muscarinic acetylcholine receptor M1 (Homo sapiens), sequence (P11229 whole entry): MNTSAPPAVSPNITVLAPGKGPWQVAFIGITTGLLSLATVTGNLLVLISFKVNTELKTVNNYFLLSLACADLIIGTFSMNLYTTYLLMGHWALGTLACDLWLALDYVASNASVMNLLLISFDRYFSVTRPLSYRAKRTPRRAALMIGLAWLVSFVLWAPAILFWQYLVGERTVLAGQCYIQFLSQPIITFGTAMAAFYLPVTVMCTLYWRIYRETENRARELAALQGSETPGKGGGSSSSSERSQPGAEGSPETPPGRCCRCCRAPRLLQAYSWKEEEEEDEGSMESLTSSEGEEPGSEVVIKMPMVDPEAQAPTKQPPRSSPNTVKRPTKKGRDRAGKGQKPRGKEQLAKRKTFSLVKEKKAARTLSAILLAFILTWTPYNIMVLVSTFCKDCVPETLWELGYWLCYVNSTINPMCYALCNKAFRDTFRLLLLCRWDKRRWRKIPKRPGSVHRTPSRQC

CYP1A2 = target: T2, CYP1A2 (Homo sapiens, UniProt P05177); experiment: Inhibition of recombinant human CYP1A2 assessed as remaining activity at 10 uM preincubated for 5 mins followed by substrate and NADP addition measured after 20 mins by fluorescence assay relative to control; type: ADME; conditions: read-out: Activity
T2 sequence (P05177 whole entry): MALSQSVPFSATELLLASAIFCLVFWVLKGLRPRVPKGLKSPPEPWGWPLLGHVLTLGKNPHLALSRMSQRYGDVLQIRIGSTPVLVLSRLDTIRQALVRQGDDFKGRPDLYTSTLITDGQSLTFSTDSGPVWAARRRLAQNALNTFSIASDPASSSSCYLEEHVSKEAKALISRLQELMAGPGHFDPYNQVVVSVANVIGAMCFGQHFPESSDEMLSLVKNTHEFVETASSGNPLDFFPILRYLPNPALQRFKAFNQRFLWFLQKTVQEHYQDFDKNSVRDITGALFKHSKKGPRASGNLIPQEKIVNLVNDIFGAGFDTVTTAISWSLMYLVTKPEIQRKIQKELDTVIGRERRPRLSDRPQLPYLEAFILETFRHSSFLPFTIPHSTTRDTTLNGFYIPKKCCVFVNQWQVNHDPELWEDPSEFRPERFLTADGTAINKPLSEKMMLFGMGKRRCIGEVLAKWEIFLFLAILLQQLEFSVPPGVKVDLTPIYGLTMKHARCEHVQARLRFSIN

[12] = Plasma concentration in Sprague-Dawley rat at 10 mg/kg, po measured at 8 hrs by LC-MS/MS analysis; type: ADME, organism-based; design: dose 10 mg/kg, route oral
[13] = Total clearance in Sprague-Dawley rat at 10 mg/kg, iv by LC-MS/MS analysis; type: ADME, organism-based; design: dose 10 mg/kg, route intravenous; conditions: in vivo
[14] = target: T1, Metabotropic glutamate receptor 1; experiment: Agonist activity at mGlu1 receptor (unknown origin) at 12.5 uM relative to control
Target sequence in this assay (Q13255 19-1194 limits assumed): as the sequence (Q13255 19-1194 limits assumed) above

[15] = Terminal half life in Sprague-Dawley rat at 10 mg/kg, iv by LC-MS/MS analysis; type: ADME, organism-based; design: dose 10 mg/kg, route intravenous; conditions: in vivo, read-out: beta t1/2
[16] = target: 5-hydroxytryptamine receptor 2C (Homo sapiens) (UniProt P28335); experiment: Agonist activity at 5HT2C receptor (unknown origin) at 12.5 uM relative to control
5-hydroxytryptamine receptor 2C (Homo sapiens), sequence (P28335 whole entry): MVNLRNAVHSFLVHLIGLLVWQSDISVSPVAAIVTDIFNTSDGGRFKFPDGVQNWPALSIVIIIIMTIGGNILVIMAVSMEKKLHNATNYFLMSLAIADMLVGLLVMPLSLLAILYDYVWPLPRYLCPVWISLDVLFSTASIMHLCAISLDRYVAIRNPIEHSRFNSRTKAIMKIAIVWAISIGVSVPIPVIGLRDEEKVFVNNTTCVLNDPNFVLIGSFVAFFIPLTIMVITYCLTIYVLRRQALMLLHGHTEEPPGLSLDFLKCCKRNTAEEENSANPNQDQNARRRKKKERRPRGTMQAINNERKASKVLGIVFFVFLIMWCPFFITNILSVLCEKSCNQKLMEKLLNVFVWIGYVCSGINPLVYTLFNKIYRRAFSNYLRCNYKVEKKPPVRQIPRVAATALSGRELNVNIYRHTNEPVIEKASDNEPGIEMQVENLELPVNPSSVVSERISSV

[17] = target: 5-hydroxytryptamine receptor 2C (Homo sapiens) (UniProt P28335); experiment: Antagonist activity at 5HT2C receptor (unknown origin) at 10 uM relative to control
[18] = target: Muscarinic acetylcholine receptor M5 (Homo sapiens) (UniProt P08912); experiment: Agonist activity at M5 receptor (unknown origin) at 12.5 uM relative to control
[19] = AUC (0 to infinity) in Sprague-Dawley rat at 10 mg/kg, po by LC-MS/MS analysis; type: ADME, organism-based; design: time infinity, dose 10 mg/kg, route oral; conditions: plasma
[20] = target: T1, Metabotropic glutamate receptor 1; experiment: Antagonist activity at human mGluR1 expressed in human Chem-3 cells assessed as inhibition of L-glutamate-induced calcium release by calcium-5 reagent-based fluorescence assay; type: functional, cell-based
[21] = target: Metabotropic glutamate receptor 5 (Homo sapiens, UniProt P41594); experiment: Antagonist activity at human mGluR5 expressed in human embryonic kidney cells assessed as inhibition of L-glutamate-induced calcium release at 10 uM by calcium-5 reagent-based fluorescence assay relative to control; type: functional, cell-based

C-X-C chemokine receptor type 5 (Homo sapiens), sequence (P32302 whole entry): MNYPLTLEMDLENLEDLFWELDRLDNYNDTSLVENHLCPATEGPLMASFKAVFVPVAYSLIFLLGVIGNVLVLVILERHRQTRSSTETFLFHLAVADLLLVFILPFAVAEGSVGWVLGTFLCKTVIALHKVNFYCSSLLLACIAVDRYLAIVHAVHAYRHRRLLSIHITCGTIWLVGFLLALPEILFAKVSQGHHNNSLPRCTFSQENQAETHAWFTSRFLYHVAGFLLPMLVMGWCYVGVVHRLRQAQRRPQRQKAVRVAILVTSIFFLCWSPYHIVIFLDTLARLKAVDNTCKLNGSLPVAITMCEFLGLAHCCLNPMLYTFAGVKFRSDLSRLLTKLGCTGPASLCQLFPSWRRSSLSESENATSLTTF

In the case of Cc1cc(C(=O)N2CCc3c(sc(NCc4ccccc4)c3C#N)C2)[nH]n1, the concentration at 2 h [1] is reported as 156 ng/mL, the inhibition [2] is reported as 4.5% and the activity at 20 min, 10 µM (CYP2D6) is reported as 33.7%. For the same molecule, the inhibition [3] was 104%, the Activity [4] was 0.7% and the Activity [5] was 1.5%. It also gave an inhibition [6] of 7.7%, an inhibition [7] of 3.8% and a remaining at 0.5 h, 1 µM [8] of 77.6%. The Activity [9] was -0.6%, the bioavailability [10] was 45.8% and the Activity [11] was -0.5%. It also gave an activity at 20 min, 10 µM (CYP1A2) of 72.7%, a concentration at 8 h [12] of 70 ng/mL and a clearance [13] of 20.1 mL/min/kg. The Activity [14] was -0.2%, the half-life [15] was 1.83 h and the Activity [16] was -0.3%. For the same molecule, the inhibition [17] was -9.4%, the Activity [18] was 0.9% and the AUC(0-inf) [19] was 4250 ng·h/mL. For the same molecule, the IC50 [20] was 1420 nM and the inhibition [21] was 59.8%.

Reference: ChEMBL document CHEMBL3421577, “Discovery and biological evaluation of tetrahydrothieno[2,3-c]pyridine derivatives as selective metabotropic glutamate receptor 1 antagonists for the potential treatment of neuropathic pain” (Eur J Med Chem, 2015)
